Assay results as given in patent US20250277784A1, “EXPRESSION SYSTEMS FOR THE ALPHA6BETA4 NICOTINIC ACETYLCHOLINE RECEPTOR AND METHODS OF USE THEREOF” (Janssen Pharmaceutica NV, priority 2021, published 2025).
Read-outs that look alike come from different tables or passages of the source.

How the values were obtained:
Human α6β4 nAChR [1] = target: T1, Human α6β4 nAChR (Homo sapiens, UniProt P30926+Q15825); assay: FLIPR assay, antagonist on nicotine-evoked calcium flux (two-addition protocol); assay type: cell-based; details: HEK293T cells, 1st addition test compound 3 min, 2nd addition nicotine (EC80, 15 μM) 3.5 min, FIG. 2
T1 construct: expressed in transfected cells
Protocol: In one embodiment, FLIPR assay is used to identify antagonists of nicotine-evoked α6β4 nAChR mediated calcium flux. In this assay, the recombinant cells are incubated with a calcium sensitive dye (such as Ca5). Using a double addition protocol, the recombinant cells are exposed to test compounds during the first duration, and to nicotine (e.g., at EC80 (15 μm)) during the second duration. Thereafter, the calcium flux is imaged by FLIPR^TETRA. […]
Human α6 and β4 subunits of α6β4 nAChR were co-transfected with BARP, SULT2B1, and CHAT in HEK293T cells and incubated at 30° C. for 24-48 hour. […] Nicotine-evoked calcium flux was then measured using a FLIPR^TETRA imager and the final FLIPR signals were averaged and plotted (FIG. 2).

Human α6β4 nAChR [2] = target: T1, Human α6β4 nAChR; assay: FLIPR assay, agonist-evoked calcium flux in recombinant cells co-transfected with BARP, SULT2B1 and CHAT; assay type: cell-based
Protocol: In one embodiment, FLIPR assay is used to identify agonists of α6β4 nAChR mediated calcium flux. In this assay, the recombinant cells are incubated with a calcium sensitive dye (such as Ca5), exposed to a test compound, and calcium flux is imaged by FLIPR^TETRA.
• Prepare a cell suspension of 1×10^6 cells per mL by centrifuging cells and resuspending in fresh, prewarmed media; • With 1900 mL of cells shaking, prepare the following transfection mix in 50 ml of OptiPro SFM Medium; • Add 2.5 mL FreeStyle MAX reagent to 47.5 mL of OptiPro SFM to an empty 50 ml tube; • In a second 50 ml tube, add 2.5 mg total DNA (α6, β4, BARP, CHAT, and SULT2B1 at a ratio of 1:1:2:1:1) in OptiPro SFM to a final volume of 50 ml and vortex gently; • Transfer the diluted DNA to the FreeStyle MAX reagent and gently mix the solution immediately and incubate for 10 minutes at room temperature; • Transfer the 100 ml FreeStyle MAX/DNA transfection mix to the cells and homogenize the culture; • Incubate 1 hour at 37° C. with 8% CO2; • Pour cells into sterile 500 mL tubes; • Spin at 1000 rpm for 7 minutes; • Remove supernatant; and • Resuspend Cells in Plating Media.
• Ethanol vials to decontaminate; • Pour cells into 50 ml conical tube; • Slowly add 10 ml warmed plating media drop wise; • Pipet up and down gently a few times to dislodge pellet if it exists; • Spin at 1000 RPM for 7 min, aspirate supernatant, and resuspend in 25 ml plating; • Seed 35,000 cells/well in 35 μL (1.0×10^6 cells/mL); and • Incubate plates for 24 hours at 37° C. Then transfer the plate to 30° C. with 5% CO2 in a humidified atmosphere for 24-48 hours.
• Wash plate with plate washer (4 washes×100 μL/wash) using compound dilution buffer, leaving 25 µL in each well; • Add 25 μL of 2× Ca6 dye to each well; • Incubate at room temperature for 1 hour; • Wash plate with plate washer (4 washes×100 μL/wash) using compound dilution buffer, leaving 50 µL in each well; • Transfer plates to FLIPR for compound addition. Concentration Response Curves for Agonist-Evoked Activity of α6β4 nAChR
Human α6 and β4 subunits of α6β4 nAChR were co-transfected with BARP, SULT2B1, and CHAT in HEK293T cells and incubated at 30° C. for 24-48 hours. The transfected cells were incubated for one hour at room temperature with Ca5 dye followed by stimulating with agonists for 3.5 minutes. Agonist-evoked calcium flux was measured using a FLIPR^TETRA imager and final FLIPR signals were averaged and plotted (FIG. 1).

[3] = tested on: patients with diabetic peripheral neuropathic pain; details: phase 2 clinical trial; cited from earlier work
α6 knockout mice = details: following both inflammatory and neuropathic injuries; cited from earlier work
[4] = HEK293T cells, incubated at 30° C. for 24-48 hours, Ca5 dye, agonist stimulation 3.5 minutes, FIG. 1

T1 sequence (Q15825 26-494): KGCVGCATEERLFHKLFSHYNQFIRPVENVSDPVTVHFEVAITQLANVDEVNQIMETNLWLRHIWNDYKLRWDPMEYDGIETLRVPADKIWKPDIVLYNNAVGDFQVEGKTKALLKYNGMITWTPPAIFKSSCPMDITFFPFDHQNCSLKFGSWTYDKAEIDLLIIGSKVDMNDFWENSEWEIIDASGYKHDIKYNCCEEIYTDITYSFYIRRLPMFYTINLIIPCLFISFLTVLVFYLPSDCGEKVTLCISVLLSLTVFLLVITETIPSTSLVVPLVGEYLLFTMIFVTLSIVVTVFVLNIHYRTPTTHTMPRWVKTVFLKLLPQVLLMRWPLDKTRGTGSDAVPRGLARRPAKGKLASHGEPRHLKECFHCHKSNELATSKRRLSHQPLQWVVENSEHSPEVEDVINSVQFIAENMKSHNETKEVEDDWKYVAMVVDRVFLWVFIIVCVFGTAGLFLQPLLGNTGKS
T1 sequence (P30926 22-498): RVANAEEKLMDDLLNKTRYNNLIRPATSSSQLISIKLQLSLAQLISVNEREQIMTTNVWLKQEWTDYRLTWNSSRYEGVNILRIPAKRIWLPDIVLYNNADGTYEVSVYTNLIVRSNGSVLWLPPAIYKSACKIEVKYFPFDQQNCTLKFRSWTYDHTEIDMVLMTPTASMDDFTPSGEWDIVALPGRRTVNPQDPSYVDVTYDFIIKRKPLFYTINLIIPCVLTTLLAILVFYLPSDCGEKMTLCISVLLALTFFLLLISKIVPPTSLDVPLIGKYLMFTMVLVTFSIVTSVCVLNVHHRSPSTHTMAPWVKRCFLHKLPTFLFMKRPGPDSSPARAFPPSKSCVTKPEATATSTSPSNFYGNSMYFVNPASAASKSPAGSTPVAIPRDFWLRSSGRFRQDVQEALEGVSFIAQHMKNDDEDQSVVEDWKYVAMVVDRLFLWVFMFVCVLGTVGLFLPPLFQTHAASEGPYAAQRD

CCN1C[C@]2(COC(=O)c3ccccc3N3C(=O)C[C@H](C)C3=O)CC[C@H](OC)[C@@]34[C@@H]5C[C@H]6[C@H](OC)[C@@H]5[C@](O)(C[C@@H]6OC)[C@@](O)([C@@H](OC)[C@H]23)[C@@H]14 [MLA, methyllycaconitine]
Nicotine-evoked calcium flux (FLIPR signal) (Human α6β4 nAChR [1]): decreases the nicotine-evoked calcium flux in a dose-dependent manner

Clc1ccc(OC[C@H]2CCN2)cn1 [ABT-594]
Agonist-evoked calcium flux (FLIPR signal) (Human α6β4 nAChR [2]; [4]): enhances calcium flux in a dose-dependent manner
Efficacy for diabetic neuropathy [3]: robust efficacy
Side effects [3]: unacceptable side effects

Clc1cc(N2C[C@@H]3CN[C@@H]3C2)cnc1Cl [ABT-894]
Agonist-evoked calcium flux (FLIPR signal) (Human α6β4 nAChR [2]; [4]): enhances calcium flux in a dose-dependent manner

Clc1ccc(C2CC3CCC2N3)cn1 (stereo not drawn) [epibatidine]
Agonist-evoked calcium flux (FLIPR signal) (Human α6β4 nAChR [2]; [4]): enhances calcium flux in a dose-dependent manner

CN1CCCC1c1cccnc1 (stereo not drawn) [nicotine]
Agonist-evoked calcium flux (FLIPR signal) (Human α6β4 nAChR [2]): enhances calcium flux in a dose-dependent manner
Nicotine EC80 (Human α6β4 nAChR [2]): 15 µM
Analgesic effects (α6 knockout mice): absent

c1cncc(OC[C@@H]2CCN2)c1 [A-85380]
Agonist-evoked calcium flux (FLIPR signal) (Human α6β4 nAChR [2]; [4]): enhances calcium flux in a dose-dependent manner

O=c1cccc2n1C[C@@H]1CNC[C@H]2C1 [cytisine]
Agonist-evoked calcium flux (FLIPR signal) (Human α6β4 nAChR [2]): enhances calcium flux in a dose-dependent manner

c1cnc2cc3c(cc2n1)[C@@H]1CNC[C@H]3C1 [varenicline]
Agonist-evoked calcium flux (FLIPR signal) (Human α6β4 nAChR [2]; [4]): enhances calcium flux in a dose-dependent manner
